ChEMBL document CHEMBL1201862, “PubChem BioAssay data set” (2004)
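Five compound concentrations were applied to cells in 96-well plates for 48 hours; endpoints were derived by simple linear interpolation of the resulting dose-response curve. GI50 is the concentration that inhibits growth by half.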 Active and inactive are the calls of the source. Cut-off read from the data, not from the text of the source: active = GI50 up to about 1.1 µM and inactive = higher.

Assays:
Assay in all cases: inhibition of tumour cell growth, NCI panel, 48 h
[1] = tested on: SNB-19
[2] = tested on: HOP-62
[3] = tested on: NCI-H522
[4] = tested on: SF-268
[5] = tested on: HCT-15
[6] = tested on: Malme-3M
[7] = tested on: SK-MEL-28
[8] = tested on: MDA-N
[9] = tested on: ACHN
[10] = tested on: OVCAR-3
[11] = tested on: HOP-92
[12] = tested on: NCI-H226
[13] = tested on: OVCAR-5
[14] = tested on: RPMI-8226
[15] = tested on: A498
[16] = tested on: LOX IMVI
[17] = tested on: PC-3
[18] = tested on: SK-OV-3
[19] = tested on: K562
[20] = tested on: HCC 2998

O=C(O)C(CCc1ccccn1)c1ccccc1 (stereo not given)
GI50 [1]: > 100 µM (inactive) | GI50 [2]: > 100 µM (inactive) | GI50 [3]: > 100 µM (inactive) | GI50 [4]: > 100 µM (inactive) | GI50 [5]: > 100 µM | GI50 [6]: > 100 µM (inactive) | GI50 [7]: > 100 µM (inactive) | GI50 [8]: > 100 µM (inactive) | GI50 [9]: > 100 µM (inactive) | GI50 [10]: > 100 µM (inactive) | GI50 [11]: > 50.4 µM (inactive) | GI50 [12]: > 100 µM (inactive) | GI50 [13]: > 100 µM (inactive) | GI50 [14]: > 100 µM (inactive) | GI50 [15]: > 100 µM (inactive) | GI50 [16]: > 100 µM (inactive) | GI50 [17]: > 100 µM (inactive) | GI50 [18]: > 100 µM (inactive) | GI50 [19]: > 100 µM (inactive) | GI50 [20]: > 100 µM (inactive)

OC1CCCC1C(O)(C(F)(F)F)C(F)(F)F (stereo not given)
GI50 [1]: > 100 µM (inactive) | GI50 [2]: > 100 µM (inactive) | GI50 [3]: > 100 µM (inactive) | GI50 [4]: > 100 µM (inactive) | GI50 [5]: > 100 µM | GI50 [6]: > 100 µM (inactive) | GI50 [7]: > 100 µM (inactive) | GI50 [8]: > 100 µM (inactive) | GI50 [9]: > 100 µM (inactive) | GI50 [10]: > 100 µM (inactive) | GI50 [11]: > 100 µM (inactive) | GI50 [12]: > 100 µM (inactive) | GI50 [13]: > 100 µM (inactive) | GI50 [14]: > 100 µM (inactive) | GI50 [15]: > 100 µM (inactive) | GI50 [16]: > 100 µM (inactive) | GI50 [17]: > 100 µM (inactive) | GI50 [18]: > 100 µM (inactive) | GI50 [19]: > 100 µM (inactive) | GI50 [20]: > 100 µM (inactive)

O=C(CCN1CC2CCC(CC2)C1)c1cccs1
GI50 [1]: > 53 µM (inactive) | GI50 [2]: 19.3 µM (inactive) | GI50 [3]: 17.4 µM (inactive) | GI50 [4]: 21.2 µM (inactive) | GI50 [5]: 20.4 µM | GI50 [6]: 21.1 µM (inactive) | GI50 [7]: 17.1 µM (inactive) | GI50 [8]: 17.1 µM (inactive) | GI50 [9]: 18.7 µM (inactive) | GI50 [10]: 21.1 µM (inactive) | GI50 [11]: 6.01 µM (inactive) | GI50 [12]: > 100 µM (inactive) | GI50 [13]: 16.4 µM (inactive) | GI50 [14]: 1.85 µM (inactive) | GI50 [15]: > 87.7 µM (inactive) | GI50 [16]: 10.7 µM (inactive) | GI50 [17]: 16.7 µM (inactive) | GI50 [18]: > 37.8 µM (inactive) | GI50 [19]: 17.5 µM (inactive) | GI50 [20]: 15.6 µM (inactive)

N=C(N)N/N=C(\c1ccc(Cl)cc1)C1CC1
GI50 [1]: 29 µM (inactive) | GI50 [2]: 19 µM (inactive) | GI50 [3]: 14.8 µM (inactive) | GI50 [4]: 28.9 µM (inactive) | GI50 [5]: 19 µM | GI50 [6]: 14.9 µM (inactive) | GI50 [7]: 19.3 µM (inactive) | GI50 [8]: 16.1 µM (inactive) | GI50 [9]: 21.8 µM (inactive) | GI50 [10]: 19.4 µM (inactive) | GI50 [11]: 22.3 µM (inactive) | GI50 [12]: 16.3 µM (inactive) | GI50 [13]: 17.9 µM (inactive) | GI50 [14]: 18.5 µM (inactive) | GI50 [15]: 14.4 µM (inactive) | GI50 [16]: 16.4 µM (inactive) | GI50 [17]: 16.2 µM (inactive) | GI50 [18]: 27.5 µM (inactive) | GI50 [19]: 34.8 µM (inactive) | GI50 [20]: 7 µM (inactive)

COc1cc(C2c3cc4c(cc3OC(NNc3ccccc3)C2C)OCO4)cc(OC)c1O (stereo not given)
GI50 [1]: 6.64 µM (inactive) | GI50 [2]: 5.66 µM (inactive) | GI50 [3]: 0.561 µM (active) | GI50 [4]: 2.58 µM (inactive) | GI50 [5]: 0.313 µM | GI50 [6]: 3.42 µM (inactive) | GI50 [7]: 4.22 µM (inactive) | GI50 [8]: 0.294 µM (active) | GI50 [9]: 0.159 µM (active) | GI50 [10]: 2.36 µM (inactive) | GI50 [11]: 9.2 µM (inactive) | GI50 [12]: 3.56 µM (inactive) | GI50 [13]: 3.21 µM (inactive) | GI50 [14]: 0.995 µM (active) | GI50 [15]: 3.85 µM (inactive) | GI50 [16]: 0.049 µM (active) | GI50 [17]: 0.815 µM (active) | GI50 [18]: 3.79 µM (inactive) | GI50 [19]: 0.0893 µM (active) | GI50 [20]: 0.331 µM (active)

C=C(C)C(=O)O[C@@H]1C/C(C)=C\[C@H](OC(C)=O)C[C@](C)(O)/C=C2/OC(=O)C(COC(C)=O)=C21
GI50 [1]: 12.3 µM (inactive) | GI50 [2]: 5.66 µM (inactive) | GI50 [3]: 0.196 µM (active) | GI50 [4]: 0.668 µM (active) | GI50 [5]: 0.212 µM | GI50 [6]: 0.274 µM (active) | GI50 [7]: 0.251 µM (active) | GI50 [8]: 0.467 µM (active) | GI50 [9]: 0.556 µM (active) | GI50 [10]: 0.726 µM (active) | GI50 [11]: 0.437 µM (active) | GI50 [12]: 1.91 µM (inactive) | GI50 [13]: 1.99 µM (inactive) | GI50 [14]: 0.314 µM (active) | GI50 [15]: 3.34 µM (inactive) | GI50 [16]: 0.152 µM (active) | GI50 [17]: 1.61 µM (inactive) | GI50 [18]: 6.12 µM (inactive) | GI50 [19]: 0.122 µM (active) | GI50 [20]: 0.399 µM (active)

CC1=NC(=Cc2ccccc2O)C(=O)N1n1c(-c2ccccc2)nc2ccccc2c1=O
GI50 [1]: 65.5 µM (inactive) | GI50 [2]: 55.1 µM (inactive) | GI50 [3]: 62.8 µM (inactive) | GI50 [4]: 33.7 µM (inactive) | GI50 [5]: 39.4 µM | GI50 [6]: 80.5 µM (inactive) | GI50 [7]: 36.9 µM (inactive) | GI50 [8]: 41.3 µM (inactive) | GI50 [9]: 29.7 µM (inactive) | GI50 [10]: 26.7 µM (inactive) | GI50 [11]: 31.9 µM (inactive) | GI50 [12]: 51.1 µM (inactive) | GI50 [13]: 40.5 µM (inactive) | GI50 [14]: 48.5 µM (inactive) | GI50 [15]: 62.8 µM (inactive) | GI50 [16]: 33 µM (inactive) | GI50 [17]: 30.3 µM (inactive) | GI50 [18]: 33.3 µM (inactive) | GI50 [19]: 30.5 µM (inactive) | GI50 [20]: 38.1 µM (inactive)

C/C(=N\Nc1ncnc2ccccc12)c1ccccn1
GI50 [1]: 0.802 µM (active) | GI50 [2]: 0.0355 µM (active) | GI50 [3]: < 0.01 µM (active) | GI50 [4]: < 0.0177 µM (active) | GI50 [5]: < 0.0197 µM | GI50 [6]: < 0.0315 µM (active) | GI50 [7]: 0.369 µM (active) | GI50 [8]: 0.384 µM (active) | GI50 [9]: 0.0169 µM (active) | GI50 [10]: < 0.0166 µM (active) | GI50 [11]: 0.25 µM (active) | GI50 [12]: 0.0276 µM (active) | GI50 [13]: 1.61 µM (inactive) | GI50 [14]: 0.019 µM (active) | GI50 [15]: 0.183 µM (active) | GI50 [16]: 0.0194 µM (active) | GI50 [17]: < 0.0226 µM (active) | GI50 [18]: 0.0299 µM (active) | GI50 [19]: < 0.0106 µM (active) | GI50 [20]: 0.105 µM (active)
